The compounds below were run on T47D cells (assay: Cellular growth inhibition assay for T47D cells, CellTiter-Glo). Conditions: 72 hours treatment, CellTiter-Glo 2.0 cell viability.
Format: cell-based, human
Protocol: T47D cells were purchased from American Type Cell Culture (ATCC Cat #HTB-133) and then seeded on poly-D-lysine coated, black clear-bottom 384-well plates at 3000/well in 25 μL Dulbecco's Modified Eagle Medium (DMEM) supplemented with 10% w/w Fetal bovine serum (FBS), 0.2 units/mL recombinant human insulin (Gibco Cat #12585014), and 1% w/w Pen-Strep. Pen-Strep is a commercially available mixture of penicillin G and streptomycin, which is used in mammalian cell culture media to prevent bacterial contamination. Dulbecco's Modified Eagle Medium (DMEM) supplemented with 10% w/w fetal bovine serum (FBS), 0.2 units/mL recombinant human insulin, and 1% w/w Pen-Strep is herein referred to as Treatment Medium. Following seeding of cells in the plates, the plates were spun at 300×g for 30 seconds, then equilibrated to room temperature for 30 minutes, and then deposited in a humidified tissue culture incubator maintained at 37° C. with 5% CO2.
At 24 hours after seeding of the cells, dilutions of test compound were prepared in DMSO and dissolved in Treatment Medium, to achieve a final DMSO concentration of 0.5% w/w, thereby providing the Test Compound Solution. A 25 μL aliquot of the Test Compound Solution was added to cells in the well plates. An equal volume of a solution containing DMSO and Treatment Medium was used as a negative control. Following treatment of cells with Test Compound Solution or said equal volume of a solution containing DMSO and Treatment Medium, the plates were spun at 300×g for 30 seconds, and then left in an incubator for 72 hours.
At the end of the treatment duration, cell viability was quantified with CellTiter-Glo 2.0 reagent (Promega Cat #G9243). For this purpose, plates were equilibrated to room temperature for 30 minutes, and then 25 μL of CellTiter-Glo 2.0 reagent was added to cells in the plate wells. Plates were then agitated on a shaker for two minutes at 500 rpm and subsequently incubated at room temperature for 10 minutes. Following incubation, the plates were spun at 3000×g for 30 seconds, then sealed with an optical adhesive cover, and luminescence readings were measured with an EnVision Plate Reader (Perkin Elmer).
Data was normalized using zero luminescence for baseline. A four-parameter non-linear regression curve fit was applied to dose-response data in GraphPad Prism data analysis software to determine the half-maximal growth inhibitory concentration (GI50) for each test compound.

SMILES	GI50 [nM]
Cc1sc2c(c1C)C(c1ccc(C3CC(CC4CCN(c5ncc(C(=O)N[C@H]6C(C)(C)[C@H](Oc7ccc(C#N)c(Cl)c7)C6(C)C)cn5)CC4)C3)cc1)=NC(C)c1nnc(C)n1-2 (some centres unmarked) [Compound I-509]	< 500
Cc1sc2c(c1C)C(c1ccc(C3CC3C3CC4(CCN(c5cnc(C(=O)N[C@H]6C(C)(C)[C@H](Oc7ccc(C#N)c(Cl)c7)C6(C)C)cn5)CC4)C3)cc1)=NC(Cc1ncco1)c1nnc(C)n1-2 (some centres unmarked) [Compound I-539]	> 3000
Cc1sc2c(c1C)C(c1ccc(C#CC3CC(Cc4ncc(C(=O)N[C@H]5C(C)(C)[C@H](Oc6ccc(C#N)c(Cl)c6)C5(C)C)cn4)C3)cc1)=NC(Cc1ncco1)c1nnc(C)n1-2 (some centres unmarked) [Compound I-561]	< 500
Cc1sc2c(c1C)C(c1ccc(C3CC3C3CC4(CCN(c5cnc(C(=O)N[C@H]6C(C)(C)[C@H](Oc7ccc(C#N)c(Cl)c7)C6(C)C)cn5)CC4)C3)cc1)=NC(Cc1ncco1)c1nnc(C)n1-2 (some centres unmarked) [Compound I-541]	< 500
Cc1sc2c(c1C)C(c1ccc(C#CC3CC4(CCCN(c5ncc(C(=O)N[C@H]6C(C)(C)[C@H](Oc7ccc(C#N)c(Cl)c7)C6(C)C)cn5)C4)C3)cc1)=NC1(CC1)c1nnc(C)n1-2 [Compound I-487]	> 3000
Cc1sc2c(c1C)C(c1ccc([C@H]3C[C@@H]3CC3CCCN(c4ncc(C(=O)N[C@H]5C(C)(C)[C@H](Oc6ccc(C#N)c(Cl)c6)C5(C)C)cn4)C3)cc1)=NC(Cc1ncco1)c1nnc(C)n1-2 (some centres unmarked) [Compound I-495]	< 500
Cc1sc2c(c1C)C(c1ccc(N3CC(C4CCC(Cc5ncc(C(=O)N[C@H]6C(C)(C)[C@H](Oc7ccc(C#N)c(Cl)c7)C6(C)C)cn5)CC4)C3)cc1)=N[C@@H](Cc1ncco1)c1nnc(C)n1-2 (some centres unmarked) [Compound I-543]	> 3000
Cc1sc2c(c1C)C(c1ccc([C@H]3C[C@@H]3CC3CCCN(c4ncc(C(=O)N[C@H]5C(C)(C)[C@H](Oc6ccc(C#N)c(Cl)c6)C5(C)C)cn4)C3)cc1)=N[C@@H](Cc1ncco1)c1nnc(C)n1-2 (some centres unmarked) [Compound I-492]	> 3000
Cc1sc2c(c1C)C(c1ccc(C3CC3C3CC4(CCN(c5ncc(C(=O)N[C@H]6C(C)(C)[C@H](Oc7ccc(C#N)c(Cl)c7)C6(C)C)cn5)CC4)C3)cc1)=N[C@@H](C)c1nnc(C)n1-2 (some centres unmarked) [Compound I-556]	> 3000
Cc1sc2c(c1C)C(c1ccc(C#CC3CCC(Cc4ncc(C(=O)N[C@H]5C(C)(C)[C@H](Oc6ccc(C#N)c(Cl)c6)C5(C)C)cn4)CC3)cc1)=N[C@@H](Cc1ncco1)c1nnc(C)n1-2 (some centres unmarked) [Compound I-505]	> 3000
Cc1sc2c(c1C)C(c1ccc(C3CC(CC4CCN(c5ncc(C(=O)N[C@H]6C(C)(C)[C@H](Oc7ccc(C#N)c(Cl)c7)C6(C)C)cn5)CC4)C3)cc1)=NC(C)c1nnc(C)n1-2 (some centres unmarked) [Compound I-511]	> 3000
Cc1sc2c(c1C)C(c1ccc(C3CC3C3CC4(CCN(c5cnc(C(=O)N[C@H]6C(C)(C)[C@H](Oc7ccc(C#N)c(Cl)c7)C6(C)C)cn5)CC4)C3)cc1)=N[C@@H](C)c1nnc(C)n1-2 (some centres unmarked) [Compound I-536]	> 3000

Same assay, conditions: Homo sapiens, T47D, 72 h, 72 hours treatment, CellTiter-Glo 2.0 cell viability

SMILES	GI50 [nM]
Cc1sc2c(c1C)C(c1ccc(C#CC3CC4(CCCN(c5ncc(C(=O)N[C@H]6C(C)(C)[C@H](Oc7ccc(C#N)c(Cl)c7)C6(C)C)cn5)C4)C3)cc1)=NC1(CC1)c1nnc(C)n1-2 [Compound I-486]	> 3000
Cc1sc2c(c1C)C(c1ccc(CC3CC(CC4CCN(c5ncc(C(=O)N[C@H]6C(C)(C)[C@H](Oc7ccc(C#N)c(Cl)c7)C6(C)C)cn5)CC4)C3)cc1)=N[C@@H](C)c1nnc(C)n1-2 (some centres unmarked) [Compound I-512]	< 500
Cc1sc2c(c1C)C(c1ccc(N3CC4(CC(Cc5ncc(C(=O)N[C@H]6C(C)(C)[C@H](Oc7ccc(C#N)c(Cl)c7)C6(C)C)cn5)C4)C3)cc1)=N[C@@H](Cc1ncco1)c1nnc(C)n1-2 [Compound I-498]	500 to 1500
Cc1sc2c(c1C)C(c1ccc(N3CC(C4CCN(c5ccc(C(=O)N[C@H]6C(C)(C)[C@H](Oc7ccc(C#N)c(Cl)c7)C6(C)C)nc5)CC4)C3)cc1)=NC1(CC1)c1nnc(C)n1-2 [Compound I-533]	1500 to 3000
Cc1sc2c(c1C)C(c1ccc(OC3CC4(C3)CC3(CCN(c5ccc(C(=O)N[C@H]6C(C)(C)[C@H](Oc7ccc(C#N)c(Cl)c7)C6(C)C)nc5)CC3)C4)cc1)=N[C@@H](Cc1ncco1)c1nnc(C)n1-2 [Compound I-546]	> 3000
Cc1sc2c(c1C)C(c1ccc(N3CC(CC4CN(c5ncc(C(=O)N[C@H]6C(C)(C)[C@H](Oc7ccc(C#N)c(Cl)c7)C6(C)C)cn5)C4)C3)cc1)=N[C@@H](Cc1ncco1)c1nnc(C)n1-2 [Compound I-562]	< 500
Cc1sc2c(c1C)C(c1ccc(N3CC(C4CCCC(Cc5ncc(C(=O)N[C@H]6C(C)(C)[C@H](Oc7ccc(C#N)c(Cl)c7)C6(C)C)cn5)C4)C3)cc1)=N[C@@H](Cc1ncco1)c1nnc(C)n1-2 (some centres unmarked) [Compound I-579]	< 500
Cc1sc2c(c1C)C(c1ccc(N3CC(CC4CN(c5ccc(C(=O)N[C@H]6C(C)(C)[C@H](Oc7ccc(C#N)c(Cl)c7)C6(C)C)nc5)C4)C3)cc1)=N[C@@H](C)c1nnc(C)n1-2 [Compound I-515]	< 500
Cc1sc2c(c1C)C(c1ccc(N3CC(C4CCN(c5ccc(C(=O)N[C@H]6C(C)(C)[C@H](Oc7ccc(C#N)c(Cl)c7)C6(C)C)nc5)CC4)C3)cc1)=N[C@@H](Cc1ncco1)c1nnc(C)n1-2 [Compound I-564]	< 500
Cc1sc2c(c1C)C(c1ccc(N3CC(CC4CCN(c5cnc(C(=O)N[C@H]6C(C)(C)[C@H](Oc7ccc(C#N)c(Cl)c7)C6(C)C)cn5)CC4)C3)cc1)=NC1(CC1)c1nnc(C)n1-2 [Compound I-526]	> 3000
Cc1sc2c(c1C)C(c1ccc(OC[C@@H]3CCCN(c4cnc(C(=O)N[C@H]5C(C)(C)[C@H](Oc6ccc(C#N)c(Cl)c6)C5(C)C)cn4)C3)cc1)=N[C@@H](Cc1ncco1)c1nnc(C)n1-2 [Compound I-591]	< 500
Cc1sc2c(c1C)C(c1ccc(N3CC(CC4CCN(c5ncc(C(=O)N[C@H]6C(C)(C)[C@H](Oc7ccc(C#N)c(Cl)c7)C6(C)C)cn5)CC4)C3)cc1)=N[C@@H](Cc1ncco1)c1nnc(C)n1-2 [Compound I-574]	< 500
Cc1sc2c(c1C)C(c1ccc(N3CC(CC4CN(c5cnc(C(=O)N[C@H]6C(C)(C)[C@H](Oc7ccc(C#N)c(Cl)c7)C6(C)C)cn5)C4)C3)cc1)=N[C@@H](Cc1ncco1)c1nnc(C)n1-2 [Compound I-563]	< 500
Cc1sc2c(c1C)C(c1ccc(N3CC4(C3)CN(c3cnc(C(=O)N[C@H]5C(C)(C)[C@H](Oc6ccc(C#N)c(Cl)c6)C5(C)C)cn3)C4)cc1)=N[C@@H](C)c1nnc(C)n1-2 [Compound I-517]	1500 to 3000
Cc1sc2c(c1C)C(c1ccc(N3CC(CC4CN(c5ccc(C(=O)N[C@H]6C(C)(C)[C@H](Oc7ccc(C#N)c(Cl)c7)C6(C)C)nc5)C4)C3)cc1)=NC1(CC1)c1nnc(C)n1-2 [Compound I-531]	> 3000
Cc1sc2c(c1C)C(c1ccc(N3CC(CC4CN(c5cnc(C(=O)N[C@H]6C(C)(C)[C@H](Oc7ccc(C#N)c(Cl)c7)C6(C)C)cn5)C4)C3)cc1)=NC1(CC1)c1nnc(C)n1-2 [Compound I-527]	> 3000
Cc1sc2c(c1C)C(c1ccc(N3CC(C4CCN(c5cnc(C(=O)N[C@H]6C(C)(C)[C@H](Oc7ccc(C#N)c(Cl)c7)C6(C)C)cn5)CC4)C3)cc1)=N[C@@H](Cc1ncco1)c1nnc(C)n1-2 [Compound I-558]	< 500
Cc1sc2c(c1C)C(c1ccc(N3CC(C4CCN(c5cnc(C(=O)N[C@H]6C(C)(C)[C@H](Oc7ccc(C#N)c(Cl)c7)C6(C)C)cn5)CC4)C3)cc1)=NC1(CC1)c1nnc(C)n1-2 [Compound I-528]	> 3000
Cc1sc2c(c1C)C(c1ccc(N3CC(CC4CCN(c5cnc(C(=O)N[C@H]6C(C)(C)[C@H](Oc7ccc(C#N)c(Cl)c7)C6(C)C)cn5)CC4)C3)cc1)=N[C@@H](Cc1ncco1)c1nnc(C)n1-2 [Compound I-575]	< 500
Cc1sc2c(c1C)C(c1ccc(OC3CC4(C3)CC3(CCN(c5ncc(C(=O)N(C)[C@H]6C(C)(C)[C@H](Oc7ccc(C#N)c(Cl)c7)C6(C)C)cn5)CC3)C4)cc1)=N[C@@H](Cc1ncco1)c1nnc(C)n1-2 [Compound I-592]	< 500
Cc1sc2c(c1C)C(c1ccc([C@@H]3C[C@H]3C3CC4(CCN(c5cnc(C(=O)N[C@H]6C(C)(C)[C@H](Oc7ccc(C#N)c(Cl)c7)C6(C)C)cn5)CC4)C3)cc1)=N[C@@H](Cc1ncco1)c1nnc(C)n1-2 [Compound I-518]	> 3000
Cc1sc2c(c1C)C(c1ccc(CC3CCN(c4ncc(C(=O)N[C@H]5C(C)(C)[C@H](Oc6ccc(C#N)c(Cl)c6)C5(C)C)cn4)CC3)cc1)=N[C@@H](Cc1ncco1)c1nnc(C)n1-2 [Compound I-554]	< 500
Cc1sc2c(c1C)C(c1ccc(OC3CC4(C3)CC3(CCN(c5ccc(C(=O)N[C@H]6C(C)(C)[C@H](Oc7ccc(C#N)c(Cl)c7)C6(C)C)nc5)CC3)C4)cc1)=N[C@@H](C)c1nnc(C)n1-2 [Compound I-549]	> 3000

Reference: patent US20260062422A1 (Halda Therapeutics OpCo, Inc., priority 2022, published 2026)
